In patent US7632972B2, “Compounds and methods for treatment of cancer and modulation of programmed cell death for melanoma and other cancer cells” (The Board of Trustees of the University of Illionis, priority 2003, dated 2009):

Legend:
786-0 = assay: NCI 60 cell line screen (SRB), Renal Cancer; type: cell-based, human
Source text: (§1) The operation of this screen utilizes 60 different human tumor cell lines, representing leukemia, melanoma and cancers of the lung, colon, brain, ovary, breast, prostate, and kidney. The aim is to prioritize for further evaluation, synthetic compounds or natural product samples showing selective growth inhibition or cell killing of particular tumor cell lines. This screen is unique in that the complexity of a 60 cell line dose response produced by a given compound results in a biological response pattern which can be utilized in pattern recognition algorithms. Using these algorithms, it is possible to assign a putative mechanism of action to a test compound, or to determine that the response pattern is unique and not similar to that of any of the standard prototype compounds included in the NCl database (see DTP Overview tab). In addition, following characterization of various cellular molecular targets in the 60 cell lines, it may be possible to select compounds most likely to interact with a specific molecular target.
(§2) The human tumor cell lines of the cancer screening panel are grown in RPMI 1640 medium containing 5% fetal bovine serum and 2 mM L-glutamine. For a typical screening experiment, cells are inoculated into 96 well microtiter plates in 100 μL at plating densities ranging from 5,000 to 40,000 cells/well depending on the doubling time of individual cell lines. After cell inoculation, the microtiter plates are incubated at 37° C., 5% CO2, 95% air and 100% relative humidity for 24 h prior to addition of experimental drugs.
(§3) After 24 h, two plates of each cell line are fixed in situ with TCA, to represent a measurement of the cell population for each cell line at the time of drug addition (Tz). Experimental drugs are solubilized in dimethyl sulfoxide at 400-fold the desired final maximum test concentration and stored frozen prior to use. At the time of drug addition, an aliquot of frozen concentrate is thawed and diluted to twice the desired final maximum test concentration with complete medium containing 50 μg/ml gentamicin. Additional four, 10-fold or ½ log serial dilutions are made to provide a total of five drug concentrations plus control. Aliquots of 100 μl of these different drug dilutions are added to the appropriate microtiter wells already containing 100 μl of medium, resulting in the required final drug concentrations.
(§4) Following drug addition, the plates are incubated for an additional 48 h at 37° C., 5% CO2, 95% air, and 100% relative humidity. For adherent cells, the assay is terminated by the addition of cold TCA. Cells are fixed in situ by the gentle addition of 50 μl of cold 50% (w/v) TCA (final concentration, 10% TCA) and incubated for 60 minutes at 4° C. The supernatant is discarded, and the plates are washed five times with tap water and air dried. Sulforhodamine B (SRB) solution (100 μl) at 0.4% (w/v) in 1% acetic acid is added to each well, and plates are incubated for 10 minutes at room temperature. After staining, unbound dye is removed by washing five times with 1% acetic acid and the plates are air dried. Bound stain is subsequently solubilized with 10 mM trizma base, and the absorbance is read on an automated plate reader at a wavelength of 515 nm. For suspension cells, the methodology is the same except that the assay is terminated by fixing settled cells at the bottom of the wells by gently adding 50 μl of 80% TCA (final concentration, 16% TCA). Using the seven absorbance measurements [time zero, (Tz), control growth, (C), and test growth in the presence of drug at the five concentration levels (Ti)], the percentage growth is calculated at each of the drug concentrations levels. Percentage growth inhibition is calculated as: [(Ti−Tz)/(C−Tz)]×100 for concentrations for which Ti>/=Tz [(Ti−Tz)/Tz]×100 for concentrations for which Ti<Tz.
(§5) Three dose response parameters are calculated for each experimental agent. […]

TK-10 = assay: NCI 60 cell line screen (SRB), Renal Cancer; type: cell-based, human
Source text: as §1, §2, §3, §4, §5

OVCAR-5 = assay: NCI 60 cell line screen (SRB), Ovarian Cancer; type: cell-based, human
Source text: as §1, §2, §3, §4, §5

OVCAR-3 = assay: NCI 60 cell line screen (SRB), Ovarian Cancer; type: cell-based, human
Source text: as §1, §2, §3, §4, §5

SK-OV-3 = assay: NCI 60 cell line screen (SRB), Ovarian Cancer; type: cell-based, human
Source text: as §1, §2, §3, §4, §5

OVCAR-8 = assay: NCI 60 cell line screen (SRB), Ovarian Cancer; type: cell-based, human
Source text: as §1, §2, §3, §4, §5

OVCAR-4 = assay: NCI 60 cell line screen (SRB), Ovarian Cancer; type: cell-based, human
Source text: as §1, §2, §3, §4, §5

IGROV1 = assay: NCI 60 cell line screen (SRB), Ovarian Cancer; type: cell-based, human
Source text: as §1, §2, §3, §4, §5

EKVX = assay: NCI 60 cell line screen (SRB), Non-Small Cell Lung Cancer; type: cell-based, human
Source text: as §1, §2, §3, §4, §5

In the case of `COc1cccc(CCNC(=O)CC(c2ccccc2)(c2ccccc2)c2ccccc2)c1` [Compound Z3], the GI50 (HL-60(TB)) is reported as 17.5 µM, the TGI (HL-60(TB)) is reported as over 1.00E−04 and the CC50 (HL-60(TB); read-out: LC50) is reported as over 100 µM. The GI50 (786-0; 786-0) was 10.6 µM, the TGI (786-0; 786-0) was over 1.00E−04 and the “Percent Growth” value (786-0; 786-0, Log10 Concentration −4.0) was 7%. The “Percent Growth” value (786-0; 786-0, Log10 Concentration −5.0) was 51%, the “Percent Growth” value (786-0; 786-0, Log10 Concentration −6.0) was 86% and the “Percent Growth” value (786-0; 786-0, Log10 Concentration −7.0) was 98%. The “Percent Growth” value (786-0; 786-0, Log10 Concentration −8.0) was 86%, the CC50 (786-0; 786-0, read-out: LC50 (the source's name)) was over 100 µM and the GI50 (TK-10; TK-10) was 21.9 µM. The TGI (TK-10; TK-10) was 8.22E−05, the “Percent Growth” value (TK-10; TK-10, Log10 Concentration −4.0) was −7% and the “Percent Growth” value (TK-10; TK-10, Log10 Concentration −5.0) was 80%. For the same molecule, the “Percent Growth” value (TK-10; TK-10, Log10 Concentration −6.0) was 133%, the “Percent Growth” value (TK-10; TK-10, Log10 Concentration −7.0) was 128% and the “Percent Growth” value (TK-10; TK-10, Log10 Concentration −8.0) was 117%. For the same molecule, the CC50 (TK-10; TK-10, read-out: LC50 (the source's name)) was over 100 µM, the GI50 (OVCAR-5; OVCAR-5) was 11.7 µM and the TGI (OVCAR-5; OVCAR-5) was over 1.00E−04. For the same molecule, the “Percent Growth” value (OVCAR-5; OVCAR-5, Log10 Concentration −4.0) was 15%, the “Percent Growth” value (OVCAR-5; OVCAR-5, Log10 Concentration −5.0) was 53% and the “Percent Growth” value (OVCAR-5; OVCAR-5, Log10 Concentration −6.0) was 83%. For the same molecule, the “Percent Growth” value (OVCAR-5; OVCAR-5, Log10 Concentration −7.0) was 87%, the “Percent Growth” value (OVCAR-5; OVCAR-5, Log10 Concentration −8.0) was 90% and the CC50 (OVCAR-5; OVCAR-5, read-out: LC50 (the source's name)) was over 100 µM. The GI50 (OVCAR-3; OVCAR-3) was 4.77 µM, the TGI (OVCAR-3; OVCAR-3) was over 1.00E−04 and the “Percent Growth” value (OVCAR-3; OVCAR-3, Log10 Concentration −4.0) was 19%. For the same molecule, the “Percent Growth” value (OVCAR-3; OVCAR-3, Log10 Concentration −5.0) was 40%, the “Percent Growth” value (OVCAR-3; OVCAR-3, Log10 Concentration −6.0) was 71% and the “Percent Growth” value (OVCAR-3; OVCAR-3, Log10 Concentration −7.0) was 102%. For the same molecule, the “Percent Growth” value (OVCAR-3; OVCAR-3, Log10 Concentration −8.0) was 90%, the CC50 (OVCAR-3; OVCAR-3, read-out: LC50 (the source's name)) was over 100 µM and the GI50 (SK-OV-3; SK-OV-3) was over 100 µM. For the same molecule, the TGI (SK-OV-3; SK-OV-3) was over 1.00E−04, the “Percent Growth” value (SK-OV-3; SK-OV-3, Log10 Concentration −4.0) was 87% and the “Percent Growth” value (SK-OV-3; SK-OV-3, Log10 Concentration −5.0) was 84%. For the same molecule, the “Percent Growth” value (SK-OV-3; SK-OV-3, Log10 Concentration −6.0) was 97%, the “Percent Growth” value (SK-OV-3; SK-OV-3, Log10 Concentration −7.0) was 98% and the “Percent Growth” value (SK-OV-3; SK-OV-3, Log10 Concentration −8.0) was 92%. For the same molecule, the CC50 (SK-OV-3; SK-OV-3, read-out: LC50 (the source's name)) was over 100 µM, the GI50 (OVCAR-8; OVCAR-8) was 4.98 µM and the TGI (OVCAR-8; OVCAR-8) was 4.77E−05. For the same molecule, the “Percent Growth” value (OVCAR-8; OVCAR-8, Log10 Concentration −4.0) was −16%, the “Percent Growth” value (OVCAR-8; OVCAR-8, Log10 Concentration −5.0) was 33% and the “Percent Growth” value (OVCAR-8; OVCAR-8, Log10 Concentration −6.0) was 88%. The “Percent Growth” value (OVCAR-8; OVCAR-8, Log10 Concentration −7.0) was 117%, the “Percent Growth” value (OVCAR-8; OVCAR-8, Log10 Concentration −8.0) was 116% and the CC50 (OVCAR-8; OVCAR-8, read-out: LC50 (the source's name)) was over 100 µM. The GI50 (OVCAR-4; OVCAR-4) was over 100 µM, the TGI (OVCAR-4; OVCAR-4) was over 1.00E−04 and the “Percent Growth” value (OVCAR-4; OVCAR-4, Log10 Concentration −4.0) was 92%. For the same molecule, the “Percent Growth” value (OVCAR-4; OVCAR-4, Log10 Concentration −5.0) was 80%, the “Percent Growth” value (OVCAR-4; OVCAR-4, Log10 Concentration −6.0) was 82% and the “Percent Growth” value (OVCAR-4; OVCAR-4, Log10 Concentration −7.0) was 106%. For the same molecule, the “Percent Growth” value (OVCAR-4; OVCAR-4, Log10 Concentration −8.0) was 92%, the CC50 (OVCAR-4; OVCAR-4, read-out: LC50 (the source's name)) was over 100 µM and the TGI (IGROV1; IGROV1) was over 1.00E−04. The “Percent Growth” value (IGROV1; IGROV1, Log10 Concentration −4.0) was 10%, the “Percent Growth” value (IGROV1; IGROV1, Log10 Concentration −5.0) was 22% and the “Percent Growth” value (IGROV1; IGROV1, Log10 Concentration −6.0) was 23%. The “Percent Growth” value (IGROV1; IGROV1, Log10 Concentration −7.0) was 63%, the “Percent Growth” value (IGROV1; IGROV1, Log10 Concentration −8.0) was 29% and the CC50 (IGROV1; IGROV1, read-out: LC50 (the source's name)) was over 100 µM. For the same molecule, the GI50 (EKVX) was 22.7 µM, the TGI (EKVX) was over 1.00E−04 and the “Percent Growth” value (EKVX; Log10 Concentration −4.0) was 29%. The “Percent Growth” value (EKVX; Log10 Concentration −5.0) was 62%, the “Percent Growth” value (EKVX; Log10 Concentration −6.0) was 109% and the “Percent Growth” value (EKVX; Log10 Concentration −7.0) was 121%. For the same molecule, the “Percent Growth” value (EKVX; Log10 Concentration −8.0) was 108% and the CC50 (EKVX; read-out: LC50 (the source's name)) was over 100 µM.
